Molecular target: T1, sGC α1/β1 heterodimer stably expressed in CHO-K1 cells (CHO-K1/sGC) (Homo sapiens, UniProt Q02108+Q02153)
T1 construct: expressed in transfected cells
T1 sequence (Q02108 1-690): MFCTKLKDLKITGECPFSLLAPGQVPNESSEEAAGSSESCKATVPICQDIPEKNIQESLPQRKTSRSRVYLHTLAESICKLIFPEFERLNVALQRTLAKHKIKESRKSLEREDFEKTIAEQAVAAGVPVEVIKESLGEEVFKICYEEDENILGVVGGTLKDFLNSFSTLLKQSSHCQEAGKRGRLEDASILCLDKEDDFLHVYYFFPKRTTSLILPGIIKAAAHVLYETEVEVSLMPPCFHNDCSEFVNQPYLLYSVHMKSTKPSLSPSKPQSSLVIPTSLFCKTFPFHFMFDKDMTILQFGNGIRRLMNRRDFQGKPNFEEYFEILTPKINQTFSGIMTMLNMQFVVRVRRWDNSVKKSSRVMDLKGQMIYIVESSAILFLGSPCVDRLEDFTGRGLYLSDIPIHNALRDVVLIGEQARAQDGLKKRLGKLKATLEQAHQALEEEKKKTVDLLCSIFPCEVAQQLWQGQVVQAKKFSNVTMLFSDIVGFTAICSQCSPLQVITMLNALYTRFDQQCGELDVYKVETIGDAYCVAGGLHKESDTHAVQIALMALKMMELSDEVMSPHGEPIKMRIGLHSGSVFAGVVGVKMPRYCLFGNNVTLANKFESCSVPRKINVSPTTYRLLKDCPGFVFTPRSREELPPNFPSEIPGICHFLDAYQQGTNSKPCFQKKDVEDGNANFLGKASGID
T1 sequence (Q02153 1-619): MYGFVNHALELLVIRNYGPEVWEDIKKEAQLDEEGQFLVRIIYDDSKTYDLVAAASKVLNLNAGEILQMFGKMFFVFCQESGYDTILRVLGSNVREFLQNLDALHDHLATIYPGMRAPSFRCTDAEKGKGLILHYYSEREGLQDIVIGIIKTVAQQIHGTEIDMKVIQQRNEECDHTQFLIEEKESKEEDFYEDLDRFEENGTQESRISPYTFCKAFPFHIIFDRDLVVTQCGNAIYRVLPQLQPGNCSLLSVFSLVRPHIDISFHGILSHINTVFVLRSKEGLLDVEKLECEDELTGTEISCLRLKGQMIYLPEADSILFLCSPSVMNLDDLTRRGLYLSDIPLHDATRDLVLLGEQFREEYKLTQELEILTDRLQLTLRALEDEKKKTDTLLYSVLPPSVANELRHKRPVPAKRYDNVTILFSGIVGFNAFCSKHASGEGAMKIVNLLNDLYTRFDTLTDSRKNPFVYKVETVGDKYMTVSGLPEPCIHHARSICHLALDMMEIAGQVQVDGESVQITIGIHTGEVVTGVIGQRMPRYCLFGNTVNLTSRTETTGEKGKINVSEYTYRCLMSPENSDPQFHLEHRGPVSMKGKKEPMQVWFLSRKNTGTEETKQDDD
Test: Cell-based sGC Functional Assay (CASA Assay)
Conditions: for Emax: CHO-K1, activation as percentage of maximum cGMP production of Compound A (set to 100%), read-out: % Act.; for EC50: inflection point of cGMP generation in CHO-K1/sGC cells, 4P fit, 1 hr at 37° C., read-out: IP
Description: sGC is a heme-containing enzyme that converts GTP to secondary messenger cGMP. Increases in cGMP levels affect several physiological processes including vasorelaxation through multiple downstream pathways. […] Heme-dependent activators (HDAs) preferentially activate sGC containing a ferrous heme group. To determine the effect of sGC activators on enzyme activity, the CASA assay was developed to monitor the generation of cGMP in a cell line that stably expresses the heterodimeric sGC protein.
A CHO-K1 cell line stably expressing the sGC α1/β1 heterodimer was generated using a standard transfection protocol. CHO-K1 cells were transfected with plasmids pIREShyghsGCα1 and pIRESneo-hsGCβ1 simultaneously using FUGENE reagent. Clones that stably express both subunits were selected with hygromycin and neomycin for ˜2 weeks. Clone #7 was chosen for the assay and was designated CHO-K1/sGC. CHO-K1/sGC cells were maintained in F-K12 medium containing 10% heat-inactivated Fetal Bovine Serum (FBS), 100 μg/mL penicillin/streptomycin, 0.5 mg/mL hygromycin and 0.25 mg/mL G418. The cells were then cryopreserved in LN2. On the day of the assay, cells thawed and resuspended in EBSS Assay Buffer (EAB, Sigma, E3024) supplemented with 5 mM MgCl2, 10 mM HEPES (4-(2-hydroxyethyl)piperazine-1-ethanesulfonic acid) and 0.05% BSA (bovine serum albumin) and cell density was then adjusted to 4×10^5/mL with EAB. IBMX (3-isobutyl-1-methylxanthin, 0.5 mM) was added to inhibit degradation of cGMP. Compounds were diluted from DMSO stock solutions and added to the assay at a final DMSO concentration of 2.5%. Cells were incubated with compounds in the presence and absence of 1 μM of Diethylenetriamine/nitric oxide adduct (DETA-NO; Sigma, 17018) for 1 hr at 37° C. At the end of the incubation period, the reaction was terminated and the cells were lysed with the detection reagents from Cisbio Kits. The level of intracellular cGMP was determined using an HTRF-based assay kit (CisBio, 62GM2PEC), which detects the displacement of a fluorescence labeled cGMP from its specific antibody. The cGMP produced by test compounds was directly compared to the maximum cGMP production (this value was set to equal 100% activation.) of the published sGC-HDA Compound A:
(Example 1 in WO 2010/065275, published Jun. 10, 2010). The test compounds' activity were then expressed as a percentage of Compound A, the standard in every experiment. This percent activation was calculated either in the presence or absence of DETA-NO which was then plotted. IP and maximum fold induction was derived using ADA analysis software for 4P fit.

| SMILES | Emax | EC50 |
| --- | --- | --- |
| Cn1ncc2c(-c3nc(N)c4c(n3)NC(=O)C4(C)c3cn(C4CCC4)nn3)nc(CCC(F)(F)C(F)(F)F)nc21 (single isomer, unassigned) [Example 74, 4-Amino-5-(1-cyclobutyl-1H-1,2,3-triazol-4-yl)-5-methyl-2-(1-methyl-6-(3,3,4,4,4-pentafluorobutyl)-1H-pyrazolo[3,4-d]pyrimidin-4-yl)-5,7-dihydro-6H-pyrrolo[2,3-d]pyrimidin-6-one] | 120% | 78 nM |
| C=CCn1cc(C2(C)C(=O)Nc3nc(-c4nc(CCC(F)(F)C(F)(F)F)nc5c4cnn5C)nc(N)c32)nn1 (single isomer, unassigned) [Example 75, 5-(1-allyl-1H-1,2,3-triazol-4-yl)-4-amino-5-methyl-2-(1-methyl-6-(3,3,4,4,4-pentafluorobutyl)-1H-pyrazolo[3,4-d]pyrimidin-4-yl)-5,7-dihydro-6H-pyrrolo[2,3-d]pyrimidin-6-one] | 139% | 175 nM |
| [2H]C([2H])([2H])n1cc(C2(C)C(=O)Nc3nc(-c4nc(CCC(F)(F)C(F)(F)F)nc5c4cnn5C([2H])([2H])[2H])nc(N)c32)nn1 (single isomer, unassigned) [Example 76, 4-Amino-5-methyl-5-(1-(methyl-d3)-1H-1,2,3-triazol-4-yl)-2-(1-(methyl-d3)-6-(3,3,4,4,4-pentafluorobutyl)-1H-pyrazolo[3,4-d]pyrimidin-4-yl)-5,7-dihydro-6H-pyrrolo[2,3-d]pyrimidin-6-one] | 148% | 168 nM |
| [2H]C([2H])([2H])n1cc(C2(C)C(=O)Nc3nc(-c4nc(CCC(F)(F)C(F)(F)F)nc5c4cnn5C)nc(N)c32)nn1 (single isomer, unassigned) [Example 77, 4-Amino-5-methyl-2-(1-methyl-6-(3,3,4,4,4-pentafluorobutyl)-1H-pyrazolo[3,4-d]pyrimidin-4-yl)-5-(1-(methyl-d3)-1H-1,2,3-triazol-4-yl)-5,7-dihydro-6H-pyrrolo[2,3-d]pyrimidin-6-one] | 157% | 168 nM |
| [2H]C([2H])([2H])n1ncc2c(-c3nc(N)c4c(n3)NC(=O)C4(C)c3ccc(F)cn3)nc(CCC(F)(F)C(F)(F)F)nc21 (stereo not shown) [Example 2, 4-Amino-5-(5-fluoropyridin-2-yl)-5-methyl-2-(1-(methyl-d3)-6-(3,3,4,4,4-pentafluorobutyl)-1H-pyrazolo[3,4-d]pyrimidin-4-yl)-5H-pyrrolo[2,3-d]pyrimidin-6(7H)-one] | 135% | 72 nM |
| Cc1noc(C2(C)C(=O)Nc3nc(-c4nc(Cc5cccc(F)c5F)nc5c4cnn5C)nc(N)c32)n1 (stereo not shown) [Example 5, 4-Amino-2-(6-(2,3-difluorobenzyl)-1-methyl-1H-pyrazolo[3,4-d]pyrimidin-4-yl)-5-methyl-5-(3-methyl-1,2,4-oxadiazol-5-yl)-5,7-dihydro-6H-pyrrolo[2,3-d]pyrimidin-6-one] | 88% | 10 nM |
| CC(CC(F)(F)F)c1nc(-c2nc(N)c3c(n2)NC(=O)C3(C)c2ccc(F)cn2)c2cnn(C)c2n1 (stereo not shown) [Example 6, 4-Amino-5-(5-fluoropyridin-2-yl)-5-methyl-2-(1-methyl-6-(4,4,4-trifluorobutan-2-yl)-1H-pyrazolo[3,4-d]pyrimidin-4-yl)-5,7-dihydro-6H-pyrrolo[2,3-d]pyrimidin-6-one] | 137% | 604 nM |
| [2H]C([2H])([2H])n1ncc2c(-c3nc(N)c4c(n3)NC(=O)C4(C)c3ccccn3)nc(CCC(F)(F)C(F)(F)F)nc21 (stereo not shown) [Example 7, 4-Amino-5-methyl-2-(1-(methyl-d3)-6-(3,3,4,4,4-pentafluorobutyl)-1H-pyrazolo[3,4-d]pyrimidin-4-yl)-5-(pyridin-2-yl)-5,7-dihydro-6H-pyrrolo[2,3-d]pyrimidin-6-one] | 147% | 212 nM |
| [2H]C([2H])([2H])n1ncc2c(-c3nc(N)c4c(n3)NC(=O)C4(C)c3nc(C4CC4)no3)nc(CCC(F)(F)C(F)(F)F)nc21 (stereo not shown) [Example 8, 4-Amino-5-(3-cyclopropyl-1,2,4-oxadiazol-5-yl)-5-methyl-2-(1-(methyl-d3)-6-(3,3,4,4,4-pentafluorobutyl)-1H-pyrazolo[3,4-d]pyrimidin-4-yl)-5,7-dihydro-6H-pyrrolo[2,3-d]pyrimidin-6-one] | 126% | 49 nM |
| [2H]C([2H])([2H])n1ncc2c(-c3nc(N)c4c(n3)NC(=O)C4(C)c3ncccn3)nc(CCC(F)(F)C(F)(F)F)nc21 (stereo not shown) [Example 9, 4-Amino-5-methyl-2-(1-(methyl-d3)-6-(3,3,4,4,4-pentafluorobutyl)-1H-pyrazolo[3,4-d]pyrimidin-4-yl)-5-(pyrimidin-2-yl)-5,7-dihydro-6H-pyrrolo[2,3-d]pyrimidin-6-one] | 121% | 116 nM |
| [2H]C([2H])([2H])n1ncc2c(-c3nc(N)c4c(n3)NC(=O)C4(C)c3ccc(C(F)(F)F)nc3)nc(CCC(F)(F)C(F)(F)F)nc21 (stereo not shown) [Example 10, 4-Amino-5-methyl-2-(1-(methyl-d3)-6-(3,3,4,4,4-pentafluorobutyl)-1H-pyrazolo[3,4-d]pyrimidin-4-yl)-5-(6-(trifluoromethyl)pyridin-3-yl)-5,7-dihydro-6H-pyrrolo[2,3-d]pyrimidin-6-one] | 114% | 665 nM |
| [2H]C([2H])([2H])n1ncc2c(-c3nc(N)c4c(n3)NC(=O)C4(C)c3coc(C)n3)nc(CCC(F)(F)C(F)(F)F)nc21 (stereo not shown) [Example 11, 4-Amino-5-methyl-2-(1-(methyl-d3)-6-(3,3,4,4,4-pentafluorobutyl)-1H-pyrazolo[3,4-d]pyrimidin-4-yl)-5-(2-methyloxazol-4-yl)-5,7-dihydro-6H-pyrrolo[2,3-d]pyrimidin-6-one] | 126% | 626 nM |
| [2H]C([2H])([2H])n1ncc2c(-c3nc(N)c4c(n3)NC(=O)C4(C)c3ccc(OC)cn3)nc(CCC(F)(F)C(F)(F)F)nc21 (stereo not shown) [Example 12, 4-Amino-5-(5-methoxypyridin-2-yl)-5-methyl-2-(1-(methyl-d3)-6-(3,3,4,4,4-pentafluorobutyl)-1H-pyrazolo[3,4-d]pyrimidin-4-yl)-5,7-dihydro-6H-pyrrolo[2,3-d]pyrimidin-6-one] | 104% |  |

— patent US9611278B2 (Merck Sharp & Dohme Corp., priority 2013, dated 2017)
